Experimental findings from patent US20080249077A1, “17.Beta.-Fluoromethoxycarbonyl-Androst-4-En-3-One Compounds With a 17.Alpha.-Carbonate Sustituent” (priority 2005, published 2008) are described below.

Where only a bound is given, the exact number is not on record here.

Holding throughout (format): cell-based
In test [1] the target is T1, glucocorticoid receptor (Homo sapiens, UniProt P04150).
T1 construct: A549 cells stably transfected with a reporter gene; endogenous in cells; host or cells: A549 cells
T1 sequence (P04150 1-777): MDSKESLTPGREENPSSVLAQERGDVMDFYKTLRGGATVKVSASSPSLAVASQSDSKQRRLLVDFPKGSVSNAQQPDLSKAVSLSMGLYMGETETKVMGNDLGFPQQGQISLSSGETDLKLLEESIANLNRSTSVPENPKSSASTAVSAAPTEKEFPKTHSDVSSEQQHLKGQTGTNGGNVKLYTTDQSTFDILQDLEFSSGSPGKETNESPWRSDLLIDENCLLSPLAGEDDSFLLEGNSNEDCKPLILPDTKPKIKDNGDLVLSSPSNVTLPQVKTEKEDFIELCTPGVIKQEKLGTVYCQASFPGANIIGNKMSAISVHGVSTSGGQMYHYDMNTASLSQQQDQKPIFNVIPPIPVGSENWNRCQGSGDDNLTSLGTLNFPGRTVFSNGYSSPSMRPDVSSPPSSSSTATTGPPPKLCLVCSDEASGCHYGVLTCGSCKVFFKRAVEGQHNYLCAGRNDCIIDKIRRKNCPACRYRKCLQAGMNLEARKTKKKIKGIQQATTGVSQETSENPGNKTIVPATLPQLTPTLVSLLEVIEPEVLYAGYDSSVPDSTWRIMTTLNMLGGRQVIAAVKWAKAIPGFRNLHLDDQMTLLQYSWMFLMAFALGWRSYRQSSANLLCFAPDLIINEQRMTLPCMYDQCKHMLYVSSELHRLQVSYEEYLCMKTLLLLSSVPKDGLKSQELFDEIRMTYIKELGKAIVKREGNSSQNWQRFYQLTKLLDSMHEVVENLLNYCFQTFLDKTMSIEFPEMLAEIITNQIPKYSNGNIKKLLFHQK
In words: Assay for transrepression activity of the glucocorticoid agonists (NF-κB responsive ELAM promoter-sPAP reporter, TNF-stimulated A549 cells). As to conditions: compound 1 hour at 37° C., then TNF 10 ng/ml for 16 hours, read-out: pIC50 (transrepression) (converted). The method, then: Assay for Transrepression Activity of the Glucocorticoid Agonists
A549 cells stably transfected with a reporter gene containing the NF-κB responsive elements from the ELAM gene promoter coupled to sPAP (secreted alkaline phosphatase) are treated with test compounds at appropriate doses for 1 hour at 37° C. The cells are then stimulated with tumour necrosis factor (TNF, 10 ng/ml) for 16 hours, at which time the amount of alkaline phosphatase produced is measured by a standard colourimetric assay. Dose response curves were constructed from which EC50 values were estimated.

Test [2] deals with T2, Progesterone Receptor (Homo sapiens, UniProt P06401).
T2 construct: expressed in transfected cells; host or cells: CV-1 cells transduced with PRb-BacMam
T2 sequence (P06401 1-933): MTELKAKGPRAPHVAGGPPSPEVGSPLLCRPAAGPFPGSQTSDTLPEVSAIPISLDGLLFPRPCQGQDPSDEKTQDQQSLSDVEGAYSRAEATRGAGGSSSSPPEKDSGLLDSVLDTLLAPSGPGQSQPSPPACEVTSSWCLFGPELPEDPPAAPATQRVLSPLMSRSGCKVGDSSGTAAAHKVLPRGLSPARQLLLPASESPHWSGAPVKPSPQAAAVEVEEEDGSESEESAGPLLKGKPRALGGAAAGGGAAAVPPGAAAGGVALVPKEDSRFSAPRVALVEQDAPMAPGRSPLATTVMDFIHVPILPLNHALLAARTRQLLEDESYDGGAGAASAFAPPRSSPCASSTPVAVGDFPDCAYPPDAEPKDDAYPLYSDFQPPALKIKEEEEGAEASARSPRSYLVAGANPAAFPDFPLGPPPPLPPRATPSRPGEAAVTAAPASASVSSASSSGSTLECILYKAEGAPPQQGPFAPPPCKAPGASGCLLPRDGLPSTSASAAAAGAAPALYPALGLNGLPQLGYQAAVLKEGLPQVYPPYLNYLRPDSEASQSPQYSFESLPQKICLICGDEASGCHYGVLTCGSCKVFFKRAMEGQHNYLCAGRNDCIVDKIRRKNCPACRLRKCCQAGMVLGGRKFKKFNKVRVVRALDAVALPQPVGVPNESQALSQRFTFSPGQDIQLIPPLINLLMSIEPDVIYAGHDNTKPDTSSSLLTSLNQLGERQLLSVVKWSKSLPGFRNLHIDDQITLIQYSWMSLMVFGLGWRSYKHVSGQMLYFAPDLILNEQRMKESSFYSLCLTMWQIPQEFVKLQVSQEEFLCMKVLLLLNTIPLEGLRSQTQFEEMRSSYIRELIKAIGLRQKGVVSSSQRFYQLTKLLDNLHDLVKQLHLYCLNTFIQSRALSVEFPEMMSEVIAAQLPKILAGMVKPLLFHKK
In words: Assay for progesterone receptor activity (CV-1 cells transduced with PRb-BacMam and MMTV-BacMam, Steady Glo). The settings on record: 24 h, read-out: pEC50 (progesterone receptor) (converted). How it is done: Assay for Progesterone Receptor Activity
Cells were diluted in DMEM containing 10% Hyclone, 2 mM […] and 1% Pen/Strep at 140 cells/μl and transduced with 10% PRb-BacMam and 10% MMTV-BacMam. […] of suspension cells were dispensed to each well of white Nunc 384-well plates, containing compounds at the required concentration. After 24 h 10 μl of Steady Glo were added to each well of the plates. Plates were incubated in the dark for 10 min before reading them on a Viewlux reader. Dose response curves were constructed from which pEC50 values were estimated.

Test [3] concerns the target T1, glucocorticoid receptor. In words: Assay for transactivation activity of the glucocorticoid agonists (MMTV-LTR renilla luciferase reporter in A549 cells). As to conditions: compound 6 hour at 37° C., read-out: maximal response relative to Dexamethasone (100%) (transactivation). The method, then:
Assay for Transactivation Activity of the Glucocorticoid Agonists
The functional assay based on that described by R. J. H. Austin et al., Eur Resp J. (2002), 20, 1386-1392 measures the ability of compounds to directly transactivate gene expression. A549 cells stably transfected with a reporter gene containing the glucocorticoid responsive region of the mouse mammary tumour virus long terminal repeat (MMTV-LTR) coupled to renilla luciferase were treated with test compounds at appropriate doses for 6 hour at 37° C. The amount of luciferase activity present within the cells is then determined by measuring the light emitted following incubation with a suitable substrate. Dose response curves were constructed from which EC50 values were estimated and from which maximal responses are calculated relative to Dexamethasone (100%).

Consider `CCC(C)(C)OC(=O)O[C@]1(C(=O)OCF)[C@H](C)C[C@H]2[C@@H]3C[C@H](F)C4=CC(=O)C=C[C@]4(C)[C@@]3(F)[C@@H](O)C[C@@]21C` [Example 2, Fluoromethyl(6α,11β,16α,17α)-17-({[(1,1-dimethylpropyl)oxy]carbonyl}oxy)-6,9-difluoro-11-hydroxy-16-methyl-3-oxoandrosta-1,4-diene-17-carboxylate], for which the IC50 in test [1] was < 0.1 nM. Moreover, in test [2], the EC50 was > 10 nM.
`CCC(OC(=O)O[C@]1(C(=O)OCF)[C@H](C)C[C@H]2[C@@H]3C[C@H](F)C4=CC(=O)C=C[C@]4(C)[C@@]3(F)[C@@H](O)C[C@@]21C)C(C)C` (stereo partly drawn) [Example 8, Fluoromethyl(6α,11β,16α,17α)-17-({[(1-ethyl-2-methylpropyl)oxy]carbonyl}oxy)-6,9-difluoro-11-hydroxy-16-methyl-3-oxoandrosta-1,4-diene-17-carboxylate]: in test [1], the IC50 is < 0.1 nM. In test [3], the Emax was < 25%. The EC50 in test [2] is > 10 nM.
`C[C@@H]1C[C@H]2[C@@H]3C[C@H](F)C4=CC(=O)C=C[C@]4(C)[C@@]3(F)[C@@H](O)C[C@]2(C)[C@@]1(OC(=O)OC1CCCCCC1)C(=O)OCF` [Example 14, Fluoromethyl(6α,11β,16α,17α)-17-{[(cycloheptyloxy)carbonyl]oxy}-6,9-difluoro-11-hydroxy-16-methyl-3-oxoandrosta-1,4-diene-17-carboxylate]: the Emax in test [3] is < 25%. Also, in test [2], the EC50 was > 10 nM.
`C[C@@H]1C[C@H]2[C@@H]3C[C@H](F)C4=CC(=O)C=C[C@]4(C)[C@@]3(F)[C@@H](O)C[C@]2(C)[C@@]1(OC(=O)O[C@@H]1[C@@H]2CC[C@@H](C2)C1(C)C)C(=O)OCF` [Example 30, Fluoromethyl(6α,11β,16α,17α)-17-[({[(1R,2R,4S)-3,3-dimethylbicyclo[2.2.1]hept-2-yl]oxy}carbonyl)oxy]-6,9-difluoro-11-hydroxy-16-methyl-3-oxoandrosta-1,4-diene-17-carboxylate]: in test [1], the IC50 was < 0.1 nM. For the same compound, the Emax in test [3] was < 25%. Also, the EC50 in test [2] is > 10 nM.
Consider `CC(C)[C@H]1CC[C@H](C)C[C@@H]1OC(=O)O[C@]1(C(=O)OCF)[C@H](C)C[C@H]2[C@@H]3C[C@H](F)C4=CC(=O)C=C[C@]4(C)[C@@]3(F)[C@@H](O)C[C@@]21C` [Example 32, Fluoromethyl(6α,11β,16α,17α)-6,9-difluoro-11-hydroxy-16-methyl-17-[({[(1 S,2R,5S)-5-methyl-2-(1-methylethyl)cyclohexyl]oxy}carbonyl)oxy]-3-oxoandrosta-1,4-diene-17-carboxylate], for which the Emax in test [3] is < 25%. Besides, the EC50 in test [2] is > 10 nM.
Taken in the same sequence, the figures for `C[C@@H]1[C@H]2C[C@@H](C[C@H]1OC(=O)O[C@]1(C(=O)OCF)[C@H](C)C[C@H]3[C@@H]4C[C@H](F)C5=CC(=O)C=C[C@]5(C)[C@@]4(F)[C@@H](O)C[C@@]31C)C2(C)C` [Example 34, Fluoromethyl(6α,11β,16α,17α)-6,9-difluoro-11-hydroxy-16-methyl-3-oxo-17-[({[(1R,2R,3R,5S)-2,6,6-trimethylbicyclo[3.1.1]hept-3-yl]oxy}carbonyl)oxy]androsta-1,4-diene-17-carboxylate] were < 25% and > 10 nM.
Consider `CCC(OC(=O)O[C@]1(C(=O)OCF)[C@H](C)C[C@H]2[C@@H]3C[C@H](F)C4=CC(=O)C=C[C@]4(C)[C@@]3(F)[C@@H](O)C[C@@]21C)C(C)(C)C` (stereo partly drawn) [Example 38, Fluoromethyl(6α,11β,16α,17α)-17-({[(1-ethyl-2,2-dimethylpropyl)oxy]carbonyl}oxy)-6,9-difluoro-11-hydroxy-16-methyl-3-oxoandrosta-1,4-diene-17-carboxylate], for which the Emax in test [3] was < 25%. The EC50 in test [2] is > 10 nM.
